Test results: paper PMC4503722, “Novel Phenotypic Outcomes Identified for a Public Collection of Approved Drugs from a Publicly Accessible Panel of Assays” (PLoS ONE, 2015)

Assays:
[1] = test system: INS-1E cells; experiment: cells; assay type: cell-based, rat; conditions: 5 mM glucose; for 5mMGluc_INS1E SecretionMod IC50/EC50: assay number 8
[2] = test system: tonic K+ channel activity in INS-1E cells; experiment: cells; assay type: cell-based, rat; conditions: 0.1 mM glucose; for 0.1mMGluc_INS1E FluxOR IC50/EC50: assay number 10
[3] = test system: INS-1E cells; assay type: cell-based, rat; conditions: 0.1 mM glucose; for 0.1mMGluc_INS1E SecretionMod Act IC50/EC50: assay number 9;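 as to 5mMGluc INS1E SecretionMod IC50/EC50: secreted insulin quantified by homogeneous immunoassay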;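 as to IC50/EC50, 5mMGluc INS1E SecretionMod (assay number 8): secreted insulin quantified by homogeneous immunoassay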
[4] = test system: HeLa cells; experiment: cells; assay type: cell-based; conditions: for Hela CellCycMod PI 2N IC50/EC50: assay number 14; for Hela CellCycMod PI S Phase IC50/EC50: assay number 15; for Hela CellCycMod PI 4N IC50/EC50: assay number 16; for Hela CellCycMod PI MI IC50/EC50: assay number 17; for Hela CellCycMod PI Cell Number IC50/EC50: assay number 18
[5] = test system: ECFC/ADSC co-culture cell nuclei number
[6] = molecular target: T1, hFLT3 (Homo sapiens, UniProt P36888); experiment: Cerep LANCE kinase assay hFLT3 (S1 assay 35); assay type: biochemical; conditions: assay number 35
T1 construct: purchased Cerep (LANCE kinase assay platform, contract assay)

[7] = molecular target: T2, hGSK3b (Homo sapiens, UniProt P49841); experiment: Cerep LANCE kinase assay hGSK3b (S1 assay 34); assay type: biochemical; conditions: assay number 34
T2 construct: purchased Cerep (LANCE kinase assay platform, contract assay)

[8] = molecular target: T3, hp70S6K1 (RPS6KB1) (Homo sapiens, UniProt P23443); experiment: Cerep LANCE kinase assay hp70S6K1 (S1 assay 31); assay type: biochemical; conditions: assay number 31
T3 construct: purchased Cerep (LANCE kinase assay platform, contract assay)

[9] = molecular target: T4, hKDR (Homo sapiens, UniProt P35968); experiment: Cerep LANCE kinase assay hKDR (S1 assay 32); assay type: biochemical; conditions: assay number 32
T4 construct: purchased Cerep (LANCE kinase assay platform, contract assay)

[10] = test system: alkaline phosphatase (ALP) activity in C2C12 cells; assay type: cell-based; conditions: assay number 6; concentration response
[11] = molecular target: T5, hJAK2 (Homo sapiens, UniProt O60674); experiment: Cerep LANCE kinase assay hJAK2 (S1 assay 33); assay type: biochemical; conditions: assay number 33
T5 construct: purchased Cerep (LANCE kinase assay platform, contract assay)

[12] = test system: nuclear β-catenin in C2C12 cells; experiment: cells; assay type: cell-based; conditions: assay number 5; concentration response
[13] = test system: endothelial tube formation in co-cultures of ECFCs and ADSCs treated with VEGF; experiment: cells; assay type: cell-based, human

T2 sequence (P49841 whole entry): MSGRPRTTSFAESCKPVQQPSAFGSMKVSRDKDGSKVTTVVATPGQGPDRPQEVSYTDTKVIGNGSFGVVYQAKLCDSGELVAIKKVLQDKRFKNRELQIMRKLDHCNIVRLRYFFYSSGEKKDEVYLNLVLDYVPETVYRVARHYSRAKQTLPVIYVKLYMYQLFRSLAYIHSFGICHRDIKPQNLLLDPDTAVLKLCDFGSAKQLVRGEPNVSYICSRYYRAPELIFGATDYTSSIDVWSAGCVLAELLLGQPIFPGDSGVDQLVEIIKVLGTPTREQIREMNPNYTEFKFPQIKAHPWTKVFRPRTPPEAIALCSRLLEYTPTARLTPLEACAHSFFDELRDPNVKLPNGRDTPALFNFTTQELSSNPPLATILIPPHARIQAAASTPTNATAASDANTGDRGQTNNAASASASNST
T1 sequence (P36888 27-993): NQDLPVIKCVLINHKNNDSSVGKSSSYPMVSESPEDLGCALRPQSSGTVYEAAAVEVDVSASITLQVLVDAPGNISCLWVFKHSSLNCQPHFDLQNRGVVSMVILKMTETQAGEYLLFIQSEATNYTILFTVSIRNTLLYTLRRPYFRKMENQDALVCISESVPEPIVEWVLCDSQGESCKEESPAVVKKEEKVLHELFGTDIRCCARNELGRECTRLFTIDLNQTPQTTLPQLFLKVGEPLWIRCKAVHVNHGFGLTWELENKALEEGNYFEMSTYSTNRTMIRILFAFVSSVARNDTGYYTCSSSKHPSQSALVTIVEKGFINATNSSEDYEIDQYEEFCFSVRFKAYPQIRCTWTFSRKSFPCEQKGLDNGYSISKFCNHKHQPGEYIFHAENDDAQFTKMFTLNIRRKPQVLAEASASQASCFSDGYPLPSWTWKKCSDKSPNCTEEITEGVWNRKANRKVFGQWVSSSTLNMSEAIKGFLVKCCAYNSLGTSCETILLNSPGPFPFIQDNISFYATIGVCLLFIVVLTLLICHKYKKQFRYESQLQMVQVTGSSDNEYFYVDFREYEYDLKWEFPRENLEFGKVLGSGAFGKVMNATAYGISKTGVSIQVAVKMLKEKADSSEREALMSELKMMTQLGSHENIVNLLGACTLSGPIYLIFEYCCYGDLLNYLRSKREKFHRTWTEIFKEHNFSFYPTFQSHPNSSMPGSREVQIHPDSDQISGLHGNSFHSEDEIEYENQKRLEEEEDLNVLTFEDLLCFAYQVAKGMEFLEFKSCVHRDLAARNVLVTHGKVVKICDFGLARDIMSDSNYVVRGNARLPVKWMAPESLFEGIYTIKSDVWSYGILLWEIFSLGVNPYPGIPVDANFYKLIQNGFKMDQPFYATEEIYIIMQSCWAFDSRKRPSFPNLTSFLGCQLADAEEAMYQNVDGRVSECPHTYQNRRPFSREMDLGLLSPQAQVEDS
T4 sequence (P35968 20-1356): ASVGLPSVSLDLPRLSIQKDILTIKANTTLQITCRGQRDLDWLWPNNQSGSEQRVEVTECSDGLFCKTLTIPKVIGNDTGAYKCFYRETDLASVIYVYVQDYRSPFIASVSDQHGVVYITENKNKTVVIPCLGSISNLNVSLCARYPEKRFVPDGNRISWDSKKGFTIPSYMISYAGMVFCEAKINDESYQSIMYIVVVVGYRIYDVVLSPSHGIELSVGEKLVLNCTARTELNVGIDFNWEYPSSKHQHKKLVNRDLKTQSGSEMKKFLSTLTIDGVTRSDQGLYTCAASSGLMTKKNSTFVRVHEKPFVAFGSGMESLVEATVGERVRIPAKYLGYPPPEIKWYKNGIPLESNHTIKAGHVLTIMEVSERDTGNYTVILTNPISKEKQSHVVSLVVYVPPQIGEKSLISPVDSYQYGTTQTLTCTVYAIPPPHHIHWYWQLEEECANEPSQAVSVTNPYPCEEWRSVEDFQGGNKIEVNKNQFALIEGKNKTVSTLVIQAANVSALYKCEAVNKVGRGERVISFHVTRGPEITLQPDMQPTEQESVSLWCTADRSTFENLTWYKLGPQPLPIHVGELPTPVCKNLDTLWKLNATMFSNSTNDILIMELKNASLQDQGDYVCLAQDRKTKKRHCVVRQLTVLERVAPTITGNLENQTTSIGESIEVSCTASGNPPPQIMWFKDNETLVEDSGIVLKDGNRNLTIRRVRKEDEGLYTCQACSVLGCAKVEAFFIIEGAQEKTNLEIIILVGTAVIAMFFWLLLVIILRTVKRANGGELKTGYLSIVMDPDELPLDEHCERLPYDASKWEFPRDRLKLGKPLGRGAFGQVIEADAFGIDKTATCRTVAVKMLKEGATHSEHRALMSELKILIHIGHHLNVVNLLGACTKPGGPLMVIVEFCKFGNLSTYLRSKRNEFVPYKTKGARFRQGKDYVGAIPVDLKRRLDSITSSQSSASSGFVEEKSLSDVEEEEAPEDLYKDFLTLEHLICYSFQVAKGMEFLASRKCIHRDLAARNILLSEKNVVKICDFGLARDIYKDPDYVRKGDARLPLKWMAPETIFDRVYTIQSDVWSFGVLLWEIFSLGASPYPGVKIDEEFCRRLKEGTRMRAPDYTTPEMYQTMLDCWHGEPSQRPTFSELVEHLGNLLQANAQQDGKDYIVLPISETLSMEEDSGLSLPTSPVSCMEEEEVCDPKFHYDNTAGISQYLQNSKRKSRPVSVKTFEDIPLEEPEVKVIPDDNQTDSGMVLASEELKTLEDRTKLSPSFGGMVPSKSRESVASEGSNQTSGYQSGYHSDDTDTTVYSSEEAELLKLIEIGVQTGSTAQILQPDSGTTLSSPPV
T3 sequence (P23443 whole entry): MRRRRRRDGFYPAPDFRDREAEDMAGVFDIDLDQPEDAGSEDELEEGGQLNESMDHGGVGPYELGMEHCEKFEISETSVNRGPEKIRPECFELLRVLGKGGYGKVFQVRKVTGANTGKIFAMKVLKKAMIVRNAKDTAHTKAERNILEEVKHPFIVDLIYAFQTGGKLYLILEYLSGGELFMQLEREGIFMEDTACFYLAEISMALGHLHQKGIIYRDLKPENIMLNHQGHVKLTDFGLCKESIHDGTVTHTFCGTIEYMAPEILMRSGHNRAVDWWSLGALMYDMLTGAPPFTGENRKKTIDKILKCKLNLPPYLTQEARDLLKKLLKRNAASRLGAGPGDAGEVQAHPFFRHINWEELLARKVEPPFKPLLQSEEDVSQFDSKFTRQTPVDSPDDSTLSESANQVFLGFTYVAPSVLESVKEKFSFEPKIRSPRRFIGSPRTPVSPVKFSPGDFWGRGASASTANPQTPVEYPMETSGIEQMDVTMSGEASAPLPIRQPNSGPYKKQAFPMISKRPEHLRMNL
T5 sequence (O60674 whole entry): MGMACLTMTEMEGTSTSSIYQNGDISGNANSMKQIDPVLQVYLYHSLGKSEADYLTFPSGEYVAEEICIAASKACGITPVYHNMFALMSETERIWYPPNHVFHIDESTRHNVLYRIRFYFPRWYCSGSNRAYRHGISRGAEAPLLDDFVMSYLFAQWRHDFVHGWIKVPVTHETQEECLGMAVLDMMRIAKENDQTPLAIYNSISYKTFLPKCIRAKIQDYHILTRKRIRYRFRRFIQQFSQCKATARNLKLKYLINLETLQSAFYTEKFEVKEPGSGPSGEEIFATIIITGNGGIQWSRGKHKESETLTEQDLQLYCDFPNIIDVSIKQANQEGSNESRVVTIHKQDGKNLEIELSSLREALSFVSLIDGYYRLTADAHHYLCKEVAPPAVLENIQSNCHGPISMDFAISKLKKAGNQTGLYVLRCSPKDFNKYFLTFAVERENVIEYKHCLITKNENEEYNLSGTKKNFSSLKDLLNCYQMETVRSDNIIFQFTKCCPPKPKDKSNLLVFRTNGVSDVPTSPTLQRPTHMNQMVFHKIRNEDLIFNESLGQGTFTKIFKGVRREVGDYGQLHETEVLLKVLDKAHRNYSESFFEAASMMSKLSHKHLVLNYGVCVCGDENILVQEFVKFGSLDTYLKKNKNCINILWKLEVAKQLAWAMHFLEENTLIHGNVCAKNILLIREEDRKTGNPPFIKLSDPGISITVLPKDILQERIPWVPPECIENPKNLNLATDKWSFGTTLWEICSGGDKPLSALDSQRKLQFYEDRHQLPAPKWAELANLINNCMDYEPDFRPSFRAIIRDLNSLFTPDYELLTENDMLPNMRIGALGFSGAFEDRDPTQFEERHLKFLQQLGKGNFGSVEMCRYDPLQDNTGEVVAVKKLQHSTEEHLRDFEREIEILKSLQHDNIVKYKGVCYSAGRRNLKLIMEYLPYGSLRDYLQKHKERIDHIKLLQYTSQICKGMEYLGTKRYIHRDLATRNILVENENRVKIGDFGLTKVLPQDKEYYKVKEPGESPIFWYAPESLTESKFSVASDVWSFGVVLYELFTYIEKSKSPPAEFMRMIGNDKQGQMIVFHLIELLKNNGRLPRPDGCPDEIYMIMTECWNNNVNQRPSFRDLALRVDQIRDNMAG

| Compound | 5mMGluc_INS1E SecretionMod IC50/EC50 [1] [µM] | 0.1mMGluc_INS1E FluxOR IC50/EC50 [2] [µM] | Hela CellCycMod PI 2N IC50/EC50 ([4]; 2N) [µM] | Hela CellCycMod PI 4N IC50/EC50 ([4]; 4N) [µM] | Hela CellCycMod PI MI IC50/EC50 ([4]; MI) [µM] | Hela CellCycMod PI Cell Number IC50/EC50 [4] [µM] | 0.1mMGluc_INS1E SecretionMod Act IC50/EC50 [3] [µM] | also measured |
| --- | --- | --- | --- | --- | --- | --- | --- | --- |
| O=c1[nH]c2ccccc2n1CCCN1CCC(n2c(=O)[nH]c3cc(Cl)ccc32)CC1 [NCGC00014670-17] | – | – | – | – | – | – | – | IC50/EC50, 5mMGluc_INS1E SecretionMod (assay number 8) [1]: 12.4283 µM; IC50/EC50, 0.1mMGluc_INS1E FluxOR (assay number 10) [2]: 36.5303 µM; IC50/EC50, 0.1mMGluc_INS1E SecretionMod Act (assay number 9) [3]: > 33.33 µM |
| CN(C)CCC=C1c2ccccc2CCc2ccccc21.Cl [NCGC00015095-15] | – | – | – | – | – | – | – | IC50/EC50, 5mMGluc_INS1E SecretionMod (assay number 8) [1]: 2.999 µM; IC50/EC50, 0.1mMGluc_INS1E FluxOR (assay number 10) [2]: 6.243 µM; IC50/EC50, Hela CellCycMod PI 2N (assay number 14) ([4]; 2N): > 10 µM; IC50/EC50, Hela CellCycMod PI 4N (assay number 16) ([4]; 4N): > 10 µM; IC50/EC50, Hela CellCycMod PI Cell Number (assay number 18) ([4]; Cell Number): > 10 µM; IC50/EC50, Hela CellCycMod PI MI (assay number 17) ([4]; MI): > 10 µM; IC50/EC50, Hela CellCycMod PI S Phase (assay number 15) ([4]; S Phase): > 10 µM; IC50/EC50, 0.1mMGluc_INS1E SecretionMod Act (assay number 9) [3]: > 33.33 µM |
| CCCNCC(O)COc1ccccc1C(=O)CCc1ccccc1 (stereo not drawn) [NCGC00015819-15] | 4.919 | 5.346 | > 10 | > 10 | > 10 | > 10 | > 33.33 | Hela CellCycMod PI S Phase IC50/EC50 [4]: > 10 µM |
| CCC(=O)c1ccc2c(c1)N(CCCN(C)C)c1ccccc1S2.Cl [NCGC00015838-06] | 10.7311 | 25.7434 | – | – | – | – | > 33.33 | – |
| CN(C)CCN(Cc1ccc(Cl)cc1)c1ccccn1 [NCGC00016672-04] | 6.1408 | 4.782 | – | – | – | – | 16.7904 | – |
| CN1CCCN(C(c2ccccc2)c2ccc(Cl)cc2)CC1 (stereo not drawn) [NCGC00018271-07] | > 3.703 | 15.6503 | – | – | – | – | > 33.33 | – |
| CCN(CCCCOC(=O)c1ccc(OC)c(OC)c1)C(C)Cc1ccc(OC)cc1.Cl (stereo not drawn) [NCGC00018277-06] | 1.952 | 1.737 | > 10 | > 10 | > 10 | > 10 | > 33.33 | Hela CellCycMod PI S Phase IC50/EC50 [4]: > 10 µM |
| CCN(CC)CCOCCOC(=O)C1(c2ccccc2)CCCC1 [NCGC00024595-08] | 7.687 | 4.656 | – | – | – | – | > 33.33 | – |
| CSc1ccc2c(c1)C(N1CCN(C)CC1)Cc1ccccc1S2 (stereo not drawn) [NCGC00024665-10] | 2.944 | – | > 10 | > 10 | > 10 | > 10 | > 33.33 | VEGF_ADSC\ECFC Angio Hoechst NucArea IC50/EC50 [5]: > 10 µM; hFLT3 LANCE IC50/EC50 [6]: > 20 µM; hGSK3b LANCE IC50/EC50 [7]: > 20 µM; hp70S6K1 LANCE IC50/EC50 [8]: > 20 µM; hKDR LANCE IC50/EC50 [9]: > 20 µM; WntCondMedia_Alk Phos C2C12 IC50/EC50 [10]: > 20 µM; hJAK2 LANCE IC50/EC50 [11]: > 20 µM; WntCondMedia_bCatenin C2C12 IC50/EC50 [12]: > 20 µM; VEGF_ADSC\ECFC Angio CD31 TubeArea IC50/EC50 [13]: > 10 µM |
